Data as given in US11331368B2, “Angiotensin receptor agonists and uses thereof” (Monash University, priority 2017, dated 2022).

Experiments:
[1] = system: human cardiac fibroblasts; test: TGF-β1-induced collagen production in human cardiac fibroblasts (Western blot); format: cell-based; conditions: co-treated with TGF-β1 for 3 days, increasing concentrations up to 1 μM
Protocol: D) Human cardiac fibroblasts (HCFs) were treated with TGFβ1 to induce a pro-fibrotic phenotype state in cell culture, exemplified by increased collagen-1 production, measured by Western blot. HCFs were treated with TGFβ1 alone, or in the presence of an AT2R agonist for 3 days, and the ability of AT2R agonists to inhibit TGFβ1-induced collagen-1 production was measured.
Commercially available human cardiac fibroblasts (HCF, Catalog #6300, Sciencell, Calif., USA) were grown in T75 flask maintained in an incubator at 37° C., 5% CO2. Complete media composition: M199 media (#11150-059, life technologies)+10% FBS (#10437-028, life technologies)+1% Fibroblast Growth Supplement-2 (#2382, ScienCell)+1% penicillin/streptomycin 10,000 U/ml antibiotics (#15140-122, Life Technologies). Fresh complete media was replenished every alternate day until culture reached 70% confluence in which media is replenished daily until it reached approximately 90% confluence in order to passage/subculture. To subculture, media was discarded and culture was rinsed with warm PBS. After which, culture was detached using warm 0.05% Trypsin+EDTA with gentle swirling of flask to make sure cells were not adherent to surface of flask. Trypsin was then neutralized with complete media and suspension was then transferred into a new falcon tube and centrifuged at 1000 rpm for 5 minutes. Supernatant was discarded and pellet of cells were resuspended with 5 ml of complete media, followed by cell counting. For subculturing/passaging, 1 million HCFs are placed into a T75 flask. For Picrosirius Red (PSR) staining or immunofluorescence experiments, 100 k cells were loaded per well in a 24 well plate lined with round coverslips. […]
Once treatment is complete, cells were washed with warm PBS and detached using Accutase (A6964, Sigma), with 5 minutes incubation at 37° C. […] The supernatant (˜20 ul) was transferred to a new tube and protein concentrations were measured using Biorad Lowry protein assay. Protein quantification of respective markers were performed via standard western blot analysis. […]

[2] = system: male FVB/N mice on high salt diet, heart; test: High salt (5%) diet intervention model, heart; format: in vivo, mouse
Outline: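 Male FVB/N mice fed 5% salt diet for 8 weeks (controls 0.35% NaCl); from week 4, AT2R agonist at 75 pmol/kg/min or saline given subcutaneously by osmotic minipump for 4 weeks on continued high salt. Heart collagen by picrosirius red, % interstitial staining averaged over eight fields; immunofluorescence for fibrosis/inflammation markers.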

Substance: Arg-Val-Tyr-Ile-His-β-Pro-Phe [βPro-Ang III]
- TGF-β1-induced collagen production [1]: dose-dependent decreases
- myofibroblast differentiation in heart (α-SMA) ([2]; 75 pmol/kg/min s.c., weeks 5-8): fully reversed the high salt-induced myofibroblast differentiation
- cardiac fibrosis (picrosirius red) ([2]; weeks 5-8 of high salt diet, peptides 75 pmol/kg/min s.c. mini-pump, Cand 2 mg/kg/day, captopril 3 mg/kg/day in drinking water): reversed established cardiac fibrosis
